Measurements: patent publication US20080175902A1, “Methods for slowing the progression of multiple sclerosis” (University of Plymouth, priority 2006, published 2008)

Legend:
Type in all cases: in vivo, human
[1] = test system: patients with multiple sclerosis with problematic spasticity; experiment: Ashworth score of spasticity, randomized placebo-controlled 15 week study; details: baseline to 13 weeks follow-up
[2] = test system: patients with multiple sclerosis; experiment: Serious adverse events (hospital admissions), 52 week follow up
Text: During this study, all hospital admissions were classed as serious adverse events.

[3] = test system: patients with multiple sclerosis; experiment: Category-rating scales of symptoms, 15 week study; details: category rating vs before study start
Method: (§1) Secondary outcomes were also measured in the above-described study. Such secondary outcomes included the Rivermead mobility index (See e.g. Collen, F. M. et al., The Rivermead mobility index: a further development of the Rivermead motor assessment. Int. Disanil. Stud. 1991; 13:50 54) hereby incorporated by reference in its entirety, a timed 10 meter walk, four self completion questionnaires—the United Kingdom neurological disability score (See e.g. Sharrack, B., Hughes R. A., The Guy's neurological disability scale (GNDS): a new disability measure for multiple sclerosis. Mult. Sder. 1999; 5: 223-33), and a series of nine category-rating scales. For the category-rating scale assessment, patients were asked to assess how their symptoms had been over the previous week compared with how they were just before the study started. Categories included irritability, depression, tiredness, muscle stiffness, tremor, pain, sleep, muscle spasms, and amount of energy.
Category rating scales were used to assess whether patients felt their symptoms had improved while on treatment relative to before start of treatment. Overall, patients felt that symptoms of pain, sleep quality, spasms, and had improved while on active treatment.

[4] = test system: patients with multiple sclerosis; experiment: Ashworth score, 52 week follow up
Text: In Example 4, the study described in Examples 1-3 above was continued to determine if long-term therapy with D9-TCH or cannabis plant extract would affect the progression of MS. At the end of week 15, patients were offered the opportunity to resume medication at the previously determined dose for a maximum of 52 weeks. If patients decided not to continue medication, the reasons for non-continuance were documented. Throughout the study, capsule compliance was checked at clinic visits by counting the number of capsules returned. Urine samples for cannabinoid analysis were collected at each clinic visit during the follow up phase in order to evaluate potential cannabis use in the placebo group.
In order to reduce the potential for unmasking bias from treatment side effects, two study personnel were used at each centre. A treating physician monitored the dosage, side effects, and patient wellbeing, while an assessor (usually a physiotherapist) measured the Ashworth score, timed 10 metre walk, and Rivermead Mobility Index (RMI). […] Assessors remained blinded to any discussion of dosage or side effects, and when evaluating patients' spasticity, were instructed not to have access to their assessment scores from previous visits. Self completion booklets containing the General Health Questionnaire-30 (GHQ-30), category rating scales (asking patients to assess any change in their symptoms at that point in the study compared with how they were before they started medication, and measuring irritability, depression, tiredness, muscle stiffness, tremor, pain, sleep, muscle spasms, and energy levels), the UK Neurological Disability Scale (UKNDS), and the Barthel Index (BI) were sent to participants just prior to week 27 and week 52. The Expanded Disability Status Scale (EDSS) was used at week 52.
As set forth in FIG. 5, 95% Confidence intervals for differences in means (active minus placebo) of changes in total Ashworth score at each visit are shown. […] For these patients, their last Ashworth score (visit 10) was carried forward as their final measured response. […]

[5] = test system: patients with multiple sclerosis; experiment: Timed 10 meter walk, 15 week study
Method: as §1
With respect to secondary outcome measures, 322 patients provided at least one baseline walk time. Of these, seven (1 cannabis extract, 3 delta-9-THC, 3 placebo) dropped out of the trial. Walk times were obtained from 278 patients at visit seven. In total, 20 patients were unable to walk (8 cannabis extract, 5 delta-9-THC, 7 placebo) and very large walk times were substituted for these individuals.

With `CCCCCc1cc(O)c2c(c1)OC(C)(C)[C@@H]1CCC(C)=C[C@@H]21` (relative stereo) [delta-9-THC, Delta-9-Tetrahydrocannabinol] the “Mean (SD) change in Ashworth score, lower-body muscle groups” value [1] was 1.39 (5.21), the “Mean (SD) change in Ashworth score, upper-body muscle groups” value [1] was 0.48 (4.70) and the “Mean (SD) change in total Ashworth score (baseline minus follow-up)” value ([1]; all muscle groups) was 1.86 (7.95). For the same molecule, the “serious adverse events reported (total number)” value ([2]; 52 week follow up, all hospital admissions) was 24, the “Serious adverse event: Insertion of baclofen pump (frequency)” value ([2]; CM) was 0 and the “Serious adverse event: Limb fracture (frequency)” value ([2]; CM) was 0. For the same molecule, the “Serious adverse event: Other (frequency)” value ([2]; CM) was 8, the “Serious adverse event: Pneumonia/chest infection (frequency)” value ([2]; CM) was 1 and the “Serious adverse event: Relapse/possible relapse (frequency)” value ([2]; CM) was 8. For the same molecule, the “Serious adverse event: Seizure (frequency)” value ([2]; CM) was 0, the “Serious adverse event: Urinary tract infection (frequency)” value ([2]; CM) was 3 and the “Serious adverse events: No. of events” value ([2]; CM) was 20. For the same molecule, the “Serious adverse events: no. of patients” value ([2]; CM) was 18, the “Serious adverse event: Insertion of baclofen pump (frequency)” value ([2]; DM) was 0 and the “Serious adverse event: Limb fracture (frequency)” value ([2]; DM) was 0. For the same molecule, the “Serious adverse event: Other (frequency)” value ([2]; DM) was 2, the “Serious adverse event: Pneumonia/chest infection (frequency)” value ([2]; DM) was 0 and the “Serious adverse event: Relapse/possible relapse (frequency)” value ([2]; DM) was 2. The “Serious adverse event: Seizure (frequency)” value ([2]; DM) was 0, the “Serious adverse event: Urinary tract infection (frequency)” value ([2]; DM) was 0 and the “Serious adverse events: No. of events” value ([2]; DM) was 4 (4). The “Serious adverse events: no. of patients” value ([2]; DM) was 4 (4), the “Depression: Deterioration, % of patients” value [3] was “(34%)” and the “Depression: Deterioration, number of patients” value [3] was 42. For the same molecule, the “Depression: Improvement, % of patients” value [3] was “(29%)”, the “Depression: Improvement, number of patients” value [3] was 36 and the “Depression: Same, % of patients” value [3] was “(38%)”. For the same molecule, the “Depression: Same, number of patients” value [3] was 47, the “Energy: Deterioration, % of patients” value [3] was “(28%)” and the “Energy: Deterioration, number of patients” value [3] was 49. The “Energy: Improvement, % of patients” value [3] was “(35%)”, the “Energy: Improvement, number of patients” value [3] was 61 and the “Energy: Same, % of patients” value [3] was “(36%)”. The “Energy: Same, number of patients” value [3] was 63, the “Irritability: Deterioration, % of patients” value [3] was “(29%)” and the “Irritability: Deterioration, number of patients” value [3] was 32. For the same molecule, the “Irritability: Improvement, % of patients” value [3] was “(33%)”, the “Irritability: Improvement, number of patients” value [3] was 37 and the “Irritability: Same, % of patients” value [3] was “(38%)”. The “Irritability: Same, number of patients” value [3] was 42, the “Pain: Deterioration, % of patients” value [3] was “(17%)” and the “Pain: Deterioration, number of patients” value [3] was 22. The “Pain: Improvement, % of patients” value [3] was “(50%)”, the “Pain: Improvement, number of patients” value [3] was 64 and the “Pain: Same, % of patients” value [3] was “(33%)”. The “Pain: Same, number of patients” value [3] was 43, the “Shake/tremor: Deterioration, % of patients” value [3] was “(25%)” and the “Shake/tremor: Deterioration, number of patients” value [3] was 32. For the same molecule, the “Shake/tremor: Improvement, % of patients” value [3] was “(41%)”, the “Shake/tremor: Improvement, number of patients” value [3] was 52 and the “Shake/tremor: Same, % of patients” value [3] was “(34%)”. The “Shake/tremor: Same, number of patients” value [3] was 44, the “Sleep: Deterioration, % of patients” value [3] was “(16%)” and the “Sleep: Deterioration, number of patients” value [3] was 24. For the same molecule, the “Sleep: Improvement, % of patients” value [3] was “(47%)”, the “Sleep: Improvement, number of patients” value [3] was 71 and the “Sleep: Same, % of patients” value [3] was “(38%)”. For the same molecule, the “Sleep: Same, number of patients” value [3] was 57, the “Spasms: Deterioration, % of patients” value [3] was “(22%)” and the “Spasms: Deterioration, number of patients” value [3] was 27. For the same molecule, the “Spasms: Improvement, % of patients” value [3] was “(49%)”, the “Spasms: Improvement, number of patients” value [3] was 81 and the “Spasms: Same, % of patients” value [3] was “(29%)”. For the same molecule, the “Spasms: Same, number of patients” value [3] was 49, the “Spasticity: Deterioration, % of patients” value [3] was “(27%)” and the “Spasticity: Deterioration, number of patients” value [3] was 47. For the same molecule, the “Spasticity: Improvement, % of patients” value [3] was “(51%)”, the “Spasticity: Improvement, number of patients” value [3] was 89 and the “Spasticity: Same, % of patients” value [3] was “(23%)”. For the same molecule, the “Spasticity: Same, number of patients” value [3] was 40, the “Tiredness: Deterioration, % of patients” value [3] was “(48%)” and the “Tiredness: Deterioration, number of patients” value [3] was 76. For the same molecule, the “Tiredness: Improvement, % of patients” value [3] was “(22%)”, the “Tiredness: Improvement, number of patients” value [3] was 35 and the “Tiredness: Same, % of patients” value [3] was “(29%)”. The “Tiredness: Same, number of patients” value [3] was 46, the “Mean (SD) difference in Ashworth scores from baseline to end of study” value ([4]; 52 week follow up) was 1.82 (8.12) and the “improvement on the Ashworth scale from a baseline mean of around 22” value ([4]; 52 week follow up) was “approximately 2 points”. The “effect on progression of MS (spasticity and disability)” value ([4]; end of the 52 week treatment period) was “profound effects in slowing the progression of MS”, the “reduction of median time taken to walk 10 meters from baseline to follow-up” value ([5]; baseline to visit 7) was 12% and the “patients unable to walk (number)” value ([5]; visit 7) was 5.
